Laboratory results: US9850283B2, “Macrocyclic inhibitors of the PD-1/PD-L1 and CD80(B7-1)/PD-L1 protein/protein interactions” (BRISTOL-MYERS SQUIBB COMPANY, priority 2013, dated 2017)
pIC50: −log10 of the molar value. Where two headings read alike, the source gives them in different places. Positions of bridges follow the written chain, without caps; N, C: chain ends. Non-standard residues stand in square brackets, D forms with d. Residues, ends and D or L forms follow the SMILES beside them. Trp(1-CH2COOH) = N[C@@H](Cc1cn(CC(=O)O)c2ccccc12)C(=O)O; Phe(3,5-F2) = N[C@@H](Cc1cc(F)cc(F)c1)C(=O)O; Bta = N[C@@H](Cc1csc2ccccc12)C(=O)O; cisHyp = O=C(O)[C@@H]1C[C@H](O)CN1; Hyp = O=C(O)[C@@H]1C[C@@H](O)CN1; NMeF = CN[C@@H](Cc1ccccc1)C(=O)O; dNMeNle = CCCC[C@@H](NC)C(=O)O; NMeNle = CCCC[C@H](NC)C(=O)O; NMeA = CN[C@@H](C)C(=O)O; Dab = NCC[C@H](N)C(=O)O; Dap = NC[C@H](N)C(=O)O; Sar = CNCC(=O)O

How the values were obtained:
[1] = biological target: T1, Human PD-L1/PD-1 (Homo sapiens, UniProt Q9NZQ7); assay: HTRF PD-1-Ig/PD-L1-His binding assay (human PD-L1); settings: cluster symbol; read-out: HTRF IC50 cluster
T1 construct: made in house; host or cells: HEK293T
T1 sequence (Q9NZQ7 with tags, fused parts or gaps): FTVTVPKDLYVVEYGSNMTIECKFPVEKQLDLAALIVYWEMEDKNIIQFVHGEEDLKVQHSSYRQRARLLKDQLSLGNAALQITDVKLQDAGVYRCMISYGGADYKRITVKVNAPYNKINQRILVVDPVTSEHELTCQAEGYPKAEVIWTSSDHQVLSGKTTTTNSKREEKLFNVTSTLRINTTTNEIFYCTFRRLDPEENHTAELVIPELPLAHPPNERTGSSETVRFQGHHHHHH
How it was run: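 Soluble PD-1-Ig binding to PD-L1-His measured by HTRF in dPBS with 0.1% BSA and 0.05% Tween-20. Detection used europium cryptate anti-Ig antibody (1 nM final) and APC anti-His antibody (20 nM final) added on top of the binding reaction.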

[2] = biological target: T2, LK35.2-hPD-L1 cells / PE-labeled PD-1-Ig (Homo sapiens, UniProt Q9NZQ7); assay: LK35.2-hPD-L1 cell binding high-content screening assay; format: cell-based; settings: cluster symbol, read-out: CBA IC50 cluster
T2 construct: expressed in transfected cells; host or cells: LK35.2 mouse B cell line
T2 sequence (Q9NZQ7 19-290): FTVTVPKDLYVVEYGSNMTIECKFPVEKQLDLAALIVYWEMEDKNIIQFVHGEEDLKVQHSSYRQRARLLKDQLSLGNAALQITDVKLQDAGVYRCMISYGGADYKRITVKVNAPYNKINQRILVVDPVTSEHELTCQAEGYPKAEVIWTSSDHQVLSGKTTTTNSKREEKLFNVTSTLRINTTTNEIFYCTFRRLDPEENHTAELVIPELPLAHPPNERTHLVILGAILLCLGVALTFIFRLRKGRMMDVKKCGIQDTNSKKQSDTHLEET
How it was run: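 Binding of PE-conjugated human PD-1-Ig (1 nM final) to human PD-L1 stably expressed on a mouse B-cell line (LK35.2) was measured by high-content imaging after washes. Compound and labeled PD-1-Ig were co-incubated 1 h at 37 °C with cells in RPMI/10% FCS.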

[3] = cell binding assay, cell line not given
[4] = cell line of CBA not given (LK35.2-hPD-L1 or 293T-hPD-L1)

Row | pIC50 [1] | pIC50 [2, 3] | pIC50 [2, 4] | SMILES
1 | < 7.52 | < 7.13 |  | CCCC[C@H]1C(=O)N(C)[C@@H](CCCC)C(=O)N[C@@H](CCN)C(=O)N[C@H](C(=O)NCC(N)=O)CSCC(=O)N[C@@H](Cc2ccc(O)cc2)C(=O)N(C)[C@@H](C)C(=O)N[C@@H](CC(N)=O)C(=O)N2CCC[C@H]2C(=O)N[C@@H](Cc2cnc[nH]2)C(=O)N[C@@H](CCC(N)=O)C(=O)N2C[C@H](O)C[C@H]2C(=O)N[C@@H](Cc2csc3ccccc23)C(=O)N[C@@H](CCN)C(=O)N[C@@H](Cc2c[nH]c3ccccc23)C(=O)N1C [Example 5056] ({CH2CO}-Y[NMeA]NPHQ[Hyp][Bta][Dab]W[NMeNle][NMeNle][Dab]CG-NH2; thioether N-14)
2 | 7.52 to 8.17 | 7.14 to 8.32 |  | CCCC[C@H]1C(=O)N(C)CC(=O)N[C@@H](CC(=O)O)C(=O)N[C@@H](C(C)C)C(=O)N(C)[C@@H](Cc2ccccc2)C(=O)N[C@@H](Cc2ccccc2)C(=O)N(C)CC(=O)N[C@@H](Cc2c[nH]c3ccccc23)C(=O)N[C@@H](Cc2ccc(O)cc2)C(=O)N[C@@H](CC(C)C)C(=O)N[C@H](C(=O)NCC(N)=O)CSCC(=O)N[C@@H](Cc2ccccc2)C(=O)N(C)[C@@H](Cc2ccccc2)C(=O)N1C [Example 3534] (HELM PEPTIDE1{[O=C(C[*:3])[*:2]].F.[meF].[CCCC[C@@H](C(=O)[*:2])N(C)[*:1]].[Sar].D.V.[meF].F.[Sar].W.Y.L.C.G.[am]}$PEPTIDE1,PEPTIDE1,1:R3-14:R3$$$V2.0)

More lines, now with the values behind:

Row | SMILES | pIC50 [1] | pIC50 [2, 3] | pIC50 [2, 4]
3 | CCCCC1C(=O)N[C@@H](CCCNC(=N)N)C(=O)N[C@@H](CC(=O)O)C(=O)N[C@@H](C(C)C)C(=O)N(C)[C@@H](Cc2ccccc2)C(=O)N[C@@H](Cc2ccc(O)cc2)C(=O)N(C)CC(=O)N[C@@H](Cc2c[nH]c3ccccc23)C(=O)N[C@@H](Cc2ccc(O)cc2)C(=O)N[C@@H](CC(C)C)C(=O)N[C@H](C(=O)NCC(N)=O)CSCC(=O)N[C@@H](Cc2ccccc2)C(=O)N(C)[C@@H](Cc2ccccc2)C(=O)N1C (stereo partly drawn) [Example 3510] (HELM PEPTIDE1{[O=C(C[*:3])[*:2]].F.[meF].[CCCCC(C(=O)[*:2])N(C)[*:1]].R.D.V.[meF].Y.[Sar].W.Y.L.C.G.[am]}$PEPTIDE1,PEPTIDE1,1:R3-14:R3$$$V2.0) | < 7.52 | < 7.13 | 
4 | CCCC[C@@H]1C(=O)N[C@@H](CC(C)C)C(=O)N[C@H](C(=O)NCC(N)=O)CSCC(=O)N[C@@H](Cc2ccc(O)cc2)C(=O)N(C)[C@@H](C)C(=O)N[C@@H](CC(N)=O)C(=O)N2CCC[C@H]2C(=O)N[C@@H](CN)C(=O)N[C@@H](CC(C)C)C(=O)N2C[C@@H](O)C[C@H]2C(=O)N[C@@H](Cc2c[nH]c3ccccc23)C(=O)N[C@@H](CCN)C(=O)N[C@@H](Cc2cn(CC(=O)O)c3ccccc23)C(=O)N(C)[C@@H](CCCC)C(=O)N1C [Example 6046] ({CH2CO}-Y[NMeA]NP[Dap]L[cisHyp]W[Dab][Trp(1-CH2COOH)][NMeNle][dNMeNle]LCG-NH2; thioether N-14) | 8.17 to 9.41 | 8.33 to 9.80 | 
5 | CCCC[C@H]1C(=O)N(C)[C@@H](CCCC)C(=O)N[C@@H](CCCNC(=N)N)C(=O)N[C@@H](C(=O)NCC(N)=O)CSCC(=O)N[C@@H](Cc2cnc[nH]2)C(=O)N(C)[C@@H](C)C(=O)N[C@@H](CC(N)=O)C(=O)N2CCC[C@H]2C(=O)N[C@@H](Cc2cnc[nH]2)C(=O)N[C@@H](CC(C)C)C(=O)N(C)CC(=O)N[C@@H](Cc2c[nH]c3ccccc23)C(=O)N[C@@H](CO)C(=O)N[C@@H](Cc2c[nH]c3ccccc23)C(=O)N1C [Example 1072] ({CH2CO}-H[NMeA]NPHL[Sar]WSW[NMeNle][NMeNle]R[dC]G-NH2; thioether N-14) | < 7.52 |  | < 7.13
6 | CCCC[C@H]1C(=O)N(C)CC(=O)N[C@@H](CC(=O)O)C(=O)N[C@@H](C(C)C)C(=O)N(C)[C@@H](Cc2ccccc2)C(=O)N[C@@H](Cc2ccc(O)cc2)C(=O)N(C)CC(=O)N[C@@H](Cc2c[nH]c3ccccc23)C(=O)N[C@@H](Cc2ccc(O)cc2)C(=O)N[C@@H](CC(C)C)C(=O)N[C@H](C(=O)NCC(N)=O)CSCC(=O)N[C@@H](Cc2cc(F)cc(F)c2)C(=O)N(C)[C@@H](Cc2ccccc2)C(=O)N1C [Example 3143] ({CH2CO}-[Phe(3,5-F2)][NMeF][NMeNle][Sar]DV[NMeF]Y[Sar]WYLCG-NH2; thioether N-13) | 7.52 to 8.17 |  | 8.33 to 9.80
